Test results: patent publication US20240325544A1, “CATIONIC LIPID FOR COVALENT MODIFICATION OF PEPTIDES” (PharmalN Corporation, priority 2023, published 2024)
Bridge positions count the residues as written; N and C are the ends. Square brackets hold non-standard residues; d marks the D form. Peptide text beside a SMILES is read from it. * marks the point of attachment. Palmitoyl = CCCCCCCCCCCCCCCC(=O)*; Dap = NC[C@H](N)C(=O)O; AEEA = NCCOCCOCC(=O)O

Legend:
human NPRB = molecular target: T1, human NPRB (Homo sapiens, UniProt P20594); test: Fluorescence polarization (FP) assay with CNP-F* probe, NPRB; format: binding; details: 150 nM test article, 5 nM CNP-F*, 50 nM human NPRB
T1 construct: NPRB R1-T433, (GenBank Accn. #NP_003986.2); made in house; host or cells: Expi293 cells
T1 sequence (P20594 23-455): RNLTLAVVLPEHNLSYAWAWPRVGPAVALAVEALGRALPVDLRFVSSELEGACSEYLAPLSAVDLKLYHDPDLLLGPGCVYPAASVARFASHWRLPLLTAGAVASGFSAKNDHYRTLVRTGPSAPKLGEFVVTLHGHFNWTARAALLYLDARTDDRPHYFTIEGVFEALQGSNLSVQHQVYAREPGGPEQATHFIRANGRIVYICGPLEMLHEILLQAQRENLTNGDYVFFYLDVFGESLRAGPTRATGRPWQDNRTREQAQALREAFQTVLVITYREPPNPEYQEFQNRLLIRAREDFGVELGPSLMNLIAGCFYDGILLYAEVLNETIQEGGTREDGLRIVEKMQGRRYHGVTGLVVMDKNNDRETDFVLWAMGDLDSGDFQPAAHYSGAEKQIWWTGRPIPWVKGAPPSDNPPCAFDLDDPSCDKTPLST
Protocol: Error bars represent standard error of the mean. […] NO.
In the presence of [SEQ ID.
The CNP-F* probe was incubated at a final concentration of 5 nM in the presence of 50 nM human NPRB or NPRC in an assay buffer containing PBS, pH 7.4 and 0.01% Triton X-100. A […] volume of CNP-F* probe and NPR were dispensed into a black 96-well Costar flat-bottom polystyrene plate prior to FP measurement. Next, […] volume of SEQ ID. No. 31 (final concentration 150 nM) was added to the premixed probe and NPR. The plate was incubated at room temperature for 10 min. Fluorescence polarization was then measured on Flexstation 3 (excitation wavelength: 480 nm; emission wavelength: 525 nm and cutoff at 515 nm).
CNP-F* was prepared using solid phase peptide synthesis. […] Next, the crude linear peptide was cleavage with 95% TFA in the presence of carbocation scavengers and ether precipitation.

[1] = tested on: E0771 breast cancer cells; test: Orthotopic E0771 breast cancer model, monotherapy or with anti-PD1 Ab (FIG. 9); format: in vivo, mice
Protocol: FIG. 9. […] Error bars represent standard error of the mean. Tumor growth kinetics of 6-week-old female C57BL/6J mice (n=7-8 per group) that were orthotopically inoculated with E0771 breast cancer cells (250,000 cells/mouse) in the mammary gland. Starting from Day 4 post-inoculation, anti-PD1 Ab (aPD1) was administered intraperitoneally at 5 mg/kg twice a week for 2 cycles; SEQ ID NO: 31 was administered subcutaneously at a bolus dose of 0.3 mg/kg once daily for 5 days (5 days on, 2 days off) for 3 cycles; or a combination of aPD1 (5 mg/kg IP twice a week; 2 cycles) and SEQ ID NO: 31 (0.3 mg/kg SC once a day for 5 days on and 2 days off; 3 cycles); SEQ ID NO: 31 dose days indicated by dotted line or gridlines. The control group, which received only buffer, was dosed in the same manner as SEQ ID NO: 31 to establish the baseline tumor growth kinetics. […] Statistical analysis was based on Dunnett's test performed by using GraphPad (n=8, 7, 8, and 7; Control, aPD1, SEQ ID NO: 31, Combo (aPD1 and SEQ ID NO: 31) * P<0.05, **** P<0.0001 vs Control group.
Animal care and treatment: Female C57BL/6J mice (6 weeks-old) were purchased from Kyudo (Saga, Japan) and maintained under a 12-hour light/12-hour dark cycle with free access to water and standard mouse diet (CRF diet; Oriental Yeast Co., Ltd, Tokyo Japan). […] Tumor sizes were measured using calipers.

CCCCCCCCCCCCCCCC(=O)NCCOCCOCC(=O)NCCOCCOCC(=O)NCCOCCOCC(=O)N[C@@H](CN)C(=O)N[C@@H](CN)C(=O)NCC(=O)N[C@@H](CC(C)C)C(=O)N[C@@H](CO)C(=O)N[C@@H](CCCCN)C(=O)NCC(=O)N[C@H]1CSSC[C@@H](C(=O)O)NC(=O)CNC(=O)[C@H](CC(C)C)NC(=O)CNC(=O)[C@H](CO)NC(=O)[C@H](CCC(N)=O)NC(=O)[C@H](CO)NC(=O)CNC(=O)[C@H]([C@@H](C)CC)NC(=O)[C@H](CCCNC(=N)N)NC(=O)[C@H](CC(=O)O)NC(=O)[C@H](CC(C)C)NC(=O)[C@H](CCCCN)NC(=O)[C@H](CC(C)C)NC(=O)CNC(=O)[C@H](Cc2ccccc2)NC1=O [SEQ ID NO: 31] ({Palmitoyl-AEEA-AEEA-AEEA}-[Dap][Dap]GLSKGCFGLKLDRIGSQSGLGC-OH; disulfide 8-24; C-terminus assumed)
Binding to NPRB (FP signal of CNP-F* probe) (human NPRB): low FP signal demonstrates binding
Tumor volume compared to Control group and aPD1 group ([1]; combination with aPD1 5 mg/kg IP twice a week, 2 cycles): significant decrease in tumor volume
Tumor volume compared to Control group and aPD1 group ([1]; monotherapy, 0.3 mg/kg SC, 5 days on, 2 days off, 3 cycles): significant decrease in tumor volume
